Results as given in US9656990B2, “Cathepsin cysteine protease inhibitors” (Merck Sharp & Dohme Corp., priority 2014, dated 2017).

How the values were obtained:
human cathepsin F = molecular target: T1, human cathepsin F (Homo sapiens, UniProt Q9UBX1); assay: Cathepsin F Assay; format: biochemical; details: IP from dose response curve; Z-Phe-Arg-AMC substrate, pH 5.5; read-out: hCat F (IP (nM))
T1 sequence (Q9UBX1 271-484): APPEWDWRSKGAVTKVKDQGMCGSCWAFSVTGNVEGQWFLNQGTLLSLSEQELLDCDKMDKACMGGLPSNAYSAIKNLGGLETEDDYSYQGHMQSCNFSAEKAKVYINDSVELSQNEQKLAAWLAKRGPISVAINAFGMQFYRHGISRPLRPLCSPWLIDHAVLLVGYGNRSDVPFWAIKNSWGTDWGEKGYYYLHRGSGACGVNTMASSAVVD
Method in brief: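 Human cathepsin F (10 nM) preincubated 15 min at room temperature with compounds in 50 mM MES pH 5.5, 2.5 mM EDTA, 2.5 mM DTT, 10% DMSO. Z-Phe-Arg-AMC (8 μM) added; AMC release read by fluorescence (Ex 360/Em 460 nm) over 20 min, inhibition fit to dose-response model.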

human cathepsin K = human cathepsin K (UniProt P43236, Y175D/V274L, species not given); assay: Cathepsin K Assay; format: biochemical; details: IP from dose response curve; Z-Leu-Arg-AMC substrate, pH 5.5; read-out: hrbCat K (IP (nM))

SMILES | IC50 (human cathepsin F) [nM] | IC50 (human cathepsin K) [nM]
N#CC1(NC(=O)[C@@H]2CCCC[C@H]2c2nn3ccccc3c2-c2ccc(N3CCS(=O)(=O)CC3)cc2)CC1 [Example 21, (1R,2R)-N-(1-cyanocyclopropyl)-2-(3-(4-(1,1-dioxidothiomorpholino)phen-yl)pyrazolo[1,5-a]pyridin-2-yl)cyclohexanecarboxamide] | 6910 | 9.56
N#CC1(NC(=O)[C@@H]2CCCC[C@H]2c2nn(-c3cccc(C(F)(F)F)c3)cc2-c2ccc(N3CCS(=O)(=O)CC3)cc2)CC1 [Example 124, (1R,2R)-N-(1-cyanocyclopropyl)-2-(4-(4-(1,1-dioxidothiomorpholino)phen-yl)-1-(3-(trifluoromethyl)phenyl)-1H-pyrazol-3-yl)cyclohexanecarboxamide] | 588 | 1.58
CC1(C)CCC(C(=O)NC2(C#N)CC2)C(c2nn(-c3ccc(F)cc3)cc2-c2ccc(N3CCS(=O)(=O)CC3)cc2)C1 [Example 117, (1S,2S, or 1R,2R)-N-(1-cyanocyclopropyl)-2-(4-(4-(1,1-dioxidothiomorpholino)phen-yl)-1-(4-fluorophenyl)-1H-pyrazol-3-yl)-4,4-dimethylcyclohexanecarbox-amide] | 1570 | 13.9
N#CC1(NC(=O)[C@@H]2CCCC[C@H]2c2nn(-c3ncc(F)cc3Cl)cc2-c2ccc(N3CCS(=O)(=O)CC3)cc2)CC1 [Example 147, (1R,2R)-2-(1-(3-chloro-5-fluoropyridin-2-yl)-4-(4-(1,1-dioxidothiomorpholino)phen-yl)-1H-pyrazol-3-yl)-N-(1-cyanocyclopropyl)cyclohex-anecarboxamide] | 1190 | 3.26
N#CC1(NC(=O)[C@@H]2CCCC[C@H]2c2nn(-c3cc(F)cnc3F)cc2-c2ccc(N3CCS(=O)(=O)CC3)cc2)CC1 [Example 169, (1R,2R)-N-(1-cyanocyclopropyl)-2-(1-(2,5-difluoropyridin-3-yl)-4-(4-(1,1-dioxidothiomorpholino)phen-yl)-1H-pyrazol-3-yl)cyclohexanecarboxamide] | 5670 | 3.94
N#CC1(NC(=O)[C@@H]2CCCC[C@H]2c2nn(-c3ccccn3)cc2-c2ccc(N3CCS(=O)(=O)CC3)cc2)CC1 [Example 142, (1R,2R)-N-(1-cyanocyclopropyl)-2-(4-(4-(1,1-dioxidothiomorpholino)phen-yl)-1-(pyridin-2-yl)-1H-pyrazol-3-yl)cyclohexanecarboxamide] | 232 | 0.52
CC(C)(C)N=S1(=O)CCN(c2ccc(-c3cn(-c4ccc(F)cc4)nc3[C@@H]3CCCC[C@H]3C(=O)NC3(C#N)CC3)cc2)CC1 [Example 18, (1R,2R)-2-(4-(4-(1-(tert-butylimino)-1-oxidothiomorpholino)phenyl)-1-(4-fluorophenyl)-1H-pyrazol-3-yl)-N-(1-cyanocyclopropyl)cyclohex-anecarboxamide] | 1290 | 5
Cc1c(-c2ccc(N3CCS(=N)(=O)CC3)cc2)c([C@@H]2CCCC[C@H]2C(=O)NC2(C#N)CC2)nn1-c1ncccc1F [Example 50, (1R,2R)-N-(1-cyanocyclopropyl)-2-(1-(3-fluoropyridin-2-yl)-4-(4-(1-imino-1-oxidothiomorpholino)phenyl)-5-methyl-1H-pyrazol-3-yl)cyclohexanecarboxamide] | 7790 | 14
N#CC1(NC(=O)[C@@H]2C[C@@H](F)CC[C@H]2c2nn(-c3ccc(F)cc3)cc2-c2ccc(N3CCS(=O)(=O)CC3)cc2)CC1 [Example 112, (1R,2R,5S)-N-(1-cyanocyclopropyl)-2-(4-(4-(1,1-dioxidothiomorpholino)phen-yl)-1-(4-fluorophenyl)-1H-pyrazol-3-yl)-5-fluorocyclohexanecarboxamide] | 922 | 1.33
CC1(C)CCC(C(=O)NC2(C#N)CC2)C(c2nn(-c3ccc(F)cc3)cc2-c2ccc(N3CCS(=O)(=O)CC3)cc2)C1 (single isomer, unassigned) [Example 116, (1R,2R or 1S,2S)-N-(1-cyanocyclopropyl)-2-(4-(4-(1,1-dioxidothiomorpholino)phen-yl)-1-(4-fluorophenyl)-1H-pyrazol-3-yl)-4,4-dimethylcyclohexanecarbox-amide] | 1200 | 328
CN=S1(=O)CCN(c2ccc(-c3cn(-c4ccc(F)cc4)nc3[C@@H]3CC[C@H](F)C[C@H]3C(=O)NC3(C#N)CC3)cc2)CC1 [Example 15, (1R,2R,5S)-N-(1-cyanocyclopropyl)-5-fluoro-2-(1-(4-fluorophenyl)-4-(4-(1-(methylimino)-1-oxidothiomorpholino)phenyl)-1H-pyrazol-3-yl)cyclohexanecarboxamide] | 1780 | 3
Cc1ccc(-n2cc(-c3ccc(N4CCS(=O)(=O)CC4)cc3)c([C@@H]3CCCC[C@H]3C(=O)NC3(C#N)CC3)n2)nn1 [Example 7, (1R,2R)—N-(1-Cyanocyclopropyl)-2-(4-(4-(1,1-dioxidothiomorpholino)phenyl)-1-(6-methylpyridazin-3-yl)-1H-pyrazol-3-yl)cyclohexanecarboxamide] | 517 | 1.54
Cc1c(-c2ccc(N3CCS(=O)(=O)CC3)cc2)c([C@@H]2CCCC[C@H]2C(=O)N[C@@H](C)C#N)nn1-c1ncccc1F [Example 42, (1R,2R)-N-((S)-1-cyanoethyl)-2-(4-(4-(1,1-dioxidothiomorpholino)phen-yl)-1-(3-fluoropyridin-2-yl)-5-methyl-1H-pyrazol-3-yl)cyclohexanecarboxamide] | 1990 | 3.62
N#CN=S1(=O)CCN(c2ccc(-c3cn(-c4ccc(F)cc4)nc3[C@@H]3CCCC[C@H]3C(=O)NC3(C#N)CC3)cc2)CC1 [Example 19, (1R,2R)-N-(1-cyanocyclopropyl)-2-(4-(4-(1-(cyanoimino)-1-oxidothiomorpholino)phenyl)-1-(4-fluorophenyl)-1H-pyrazol-3-yl)cyclohexanecarboxamide] | 809 | 2.2
Cc1c(-c2ccc(N3CCS(=O)(=O)CC3)cc2)c([C@@H]2CCCC[C@H]2C(=O)N[C@@H](C)C#N)nn1-c1ccc(F)cn1 [Example 66, (1R,2R)-N-((S)-1-cyanoethyl)-2-(4-(4-(1,1-dioxidothiomorpholino)phen-yl)-1-(5-fluoropyridin-2-yl)-5-methyl-1H-pyrazol-3-yl)cyclohexanecarboxamide] | 653 | 3.6
N#CC1(NC(=O)[C@@H]2CCCC[C@H]2c2nn(-c3ccccc3OC(F)(F)F)cc2-c2ccc(N3CCS(=O)(=O)CC3)cc2)CC1 [Example 125, (1R,2R)-N-(1-cyanocyclopropyl)-2-(4-(4-(1,1-dioxidothiomorpholino)phen-yl)-1-(2-(trifluoromethoxy)phenyl)-1H-pyrazol-3-yl)cyclohexanecarboxamide] | 836 | 2.18
C[C@@H](C#N)NC(=O)[C@@H]1CCC(F)(F)C[C@H]1c1nn(-c2ncccc2F)cc1-c1ccc(N2CCS(=N)(=O)CC2)cc1 [Example 45, (1R,2R)-N-((S)-1-cyanoethyl)-4,4-difluoro-2-(1-(3-fluoropyridin-2-yl)-4-(4-(1-imino-1-oxidothiomorpholino)phenyl)-1H-pyrazol-3-yl)cyclohexanecarboxamide] | 5480 | 6.61
CN=S1(=O)CCN(c2ccc(-c3cn(-c4ccc(F)cn4)nc3[C@@H]3CC[C@H](F)C[C@H]3C(=O)N[C@@H](C)C#N)cc2)CC1 [Example 38, (1R,2R,5S)-N-((S)-1-cyanoethyl)-5-fluoro-2-(1-(5-fluoropyridin-2-yl)-4-(4-(1-(methylimino)-1-oxidothiomorpholino)phenyl)-1H-pyrazol-3-yl)cyclohexanecarboxamide] | 855 | 1.14
N#CC1(NC(=O)[C@@H]2CC(F)(F)CC[C@H]2c2nn(-c3ccc(F)cn3)c(CO)c2-c2ccc(N3CCS(=O)(=O)CC3)cc2)CC1 [Example 68, (1R,2R)-N-(1-cyanocyclopropyl)-2-(4-(4-(1,1-dioxidothiomorpholino)phen-yl)-1-(5-fluoropyridin-2-yl)-5-(hydroxymethyl)-1H-pyrazol-3-yl)-5,5-difluorocyclohexanecarbox-amide] | 125 | 1.41
CS(=O)(=O)c1ccc(-c2cn(-c3ccc(F)cc3)nc2C2CCC(F)(F)CC2C(=O)NCC#N)cc1 (racemic) [Example 77, (1R,2R and 1S,2S)-N-(cyanomethyl)-5,5-difluoro-2-(1-(4-fluorophenyl)-4-(4-(methylsulfonyl)phenyl)-1H-pyrazol-3-yl)cyclohexanecarboxamide] | 9 | 1.24
CC1(C)CC[C@@H](c2nn(-c3ccc(F)cc3)cc2-c2ccc(N3CCS(=O)(=O)CC3)cc2)[C@H](C(=O)NC2(C#N)CC2)C1 (single isomer, unassigned) [Example 127, (1S,2S) or (1R,2R)-N-(1-cyanocyclopropyl)-2-(4-(4-(1,1-dioxidothiomorpholino)phen-yl)-1-(4-fluorophenyl)-1H-pyrazol-3-yl)-5,5-dimethylcyclohexanecarbox-amide] | 632 | 1.5
N#CC1(NC(=O)[C@@H]2CCCC[C@H]2c2nn(-c3ccc(C(F)(F)F)nc3)cc2-c2ccc(N3CCS(=O)(=O)CC3)cc2)CC1 [Example 166, (1R,2R)-N-(1-cyanocyclopropyl)-2-(4-(4-(1,1-dioxidothiomorpholino)phen-yl)-1-(6-(trifluoromethyl)pyridin-3-yl)-1H-pyrazol-3-yl)cyclohexanecarboxamide] | 428 | 1.31
